According to patent US20120083471A1, “Novel Compounds, Pharmaceutical Compositions Containing Same, Methods of Use for Same, and Methods for Preparing Same” (priority 2008, published 2012):
Entries after “also recorded” stand apart in the source; their conditions may differ.

Columns and labels:
mouse mitochondrial GPAT = target: T1, mouse mitochondrial GPAT (Mus musculus, UniProt Q61586); conditions: reference 12; read-out: reported IC50 for mouse mitochondrial GPAT activity; cited from earlier work
T1 sequence (Q61586 1-827): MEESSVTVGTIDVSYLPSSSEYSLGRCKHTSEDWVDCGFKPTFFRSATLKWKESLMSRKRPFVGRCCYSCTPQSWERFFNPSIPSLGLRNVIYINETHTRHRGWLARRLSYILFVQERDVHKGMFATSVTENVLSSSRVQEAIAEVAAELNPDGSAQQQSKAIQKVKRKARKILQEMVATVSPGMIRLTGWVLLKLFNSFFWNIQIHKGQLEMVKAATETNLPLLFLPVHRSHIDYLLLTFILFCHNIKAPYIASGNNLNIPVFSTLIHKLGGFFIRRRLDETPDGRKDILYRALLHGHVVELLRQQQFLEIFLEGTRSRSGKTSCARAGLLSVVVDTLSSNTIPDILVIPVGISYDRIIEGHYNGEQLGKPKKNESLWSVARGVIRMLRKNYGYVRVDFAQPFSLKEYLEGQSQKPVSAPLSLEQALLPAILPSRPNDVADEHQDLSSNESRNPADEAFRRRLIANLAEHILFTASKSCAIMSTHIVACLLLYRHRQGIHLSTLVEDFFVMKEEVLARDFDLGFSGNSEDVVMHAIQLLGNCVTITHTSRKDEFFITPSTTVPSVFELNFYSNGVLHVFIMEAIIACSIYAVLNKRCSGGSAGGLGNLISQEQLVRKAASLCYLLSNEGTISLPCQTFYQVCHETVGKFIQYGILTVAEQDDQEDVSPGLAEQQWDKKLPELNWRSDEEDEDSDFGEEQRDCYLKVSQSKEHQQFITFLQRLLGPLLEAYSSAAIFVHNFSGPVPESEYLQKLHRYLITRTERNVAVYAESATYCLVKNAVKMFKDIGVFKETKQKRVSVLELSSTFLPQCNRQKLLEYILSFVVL

DIO mice [1] = experiment: 10 d FSG67 treatment of DIO mice with Q-NMR assessment of adiposity; type: in vivo, mouse
Method: Q-NMR assessment of adiposity. Following 10 days of FSG67 treatment or vehicle by ip administration, the DIO mice were euthanized and carcasses were stored at −80° C. Carcasses were thawed for Q-NMR analysis. Measurement of fat, lean, and water mass was performed using an EchoMRI-100™ (Echo Medical Systems, Houston, Tex.) in the Molecular and Comparative Pathobiology Phenotyping Core.
Since FSG67 increased fatty acid oxidation and reduced food intake in DIO mice, we next used Q-NMR analysis to measure lean, fat and water mass in FSG67 treated and control mice to determine the composition of the tissue loss with FSG67 treatment. In an additional chronic treatment experiment, 10 DIO mice were treated with FSG67 (5 mg/kg/d, ip) and 10 received vehicle for 10 days. The FSG67 treated mice lost 6.1±0.9 g (13.1±1.9%) while vehicle controls lost 1.1±0.4 g (2.3±0.8%) (p<0.0001. 2-way ANOVA). […] At the conclusion of the experiment, the FSG67 treated mice weighed 4.4 g less than the vehicle controls, which could be accounted for by the 4.0 g difference in fat mass. Thus, GPAT inhibition selectively reduces adiposity in DIO mice.

[2] = tested on: hypothalamic neuropeptide expression; experiment: Real-time RT-PCR of hypothalamic neuropeptides in lean mice after single dose; type: in vivo, mouse; conditions: single 20 mg/kg
Method: (§1) For acute studies, 6 DIO or lean mice were treated with a single dose of FSG67 (20 mg/kg, i.p.) approximately 3 hrs past lights-on. Animal weights and food consumption were measured 18 h after treatment. Following euthanization, the hypothalmuses were harvested to measure orexigenic and anorexigenic neuropeptide gene expression. In the chronic studies, DIO mice, 4-10 animals per group, were treated daily with FSG67 (5 mg/kg, i.p.) or with RMPI vehicle for the days indicated. Body weight and food intake were measured daily. In one study, a cohort of mice was pair-fed with amounts consumed by the FSG67-treated animals and mice were monitored with indirect calorimetry (Oxymax Equal Flow System®, Columbus Instruments, Columbus, Ohio). Measurements of VO2 (ml/kg/hr) and VCO2 (ml/kg/hr) were performed and recorded every 15 min. The respiratory exchange ratio (RER) was calculated by Oxymax software, version 5.9, and is defined as ratio of VCO2 to VO2 33. After completion of the treatment course, animals were euthanized by CO2 inhalation 4 hrs following the final dose of FSG67. Tissues were harvested immediately for RNA extraction; serum was collected and analyzed for glucose, cholesterol, and triglyceride measurements (Bioanalytics, Gaithersburg, Md.). Fresh liver tissue was snap frozen in liquid N2, sectioned, and stained with hematoxylin and Oil Red O to visualize triglyceride droplets.
Real-time RT-PCR. Hypothalamus, liver, and WAT of DIO and lean mice were harvested and immediately frozen in liquid nitrogen. Total RNA was isolated and real-time quantitative RT-PCR was performed as previously described (13). Gene-specific primer pairs were designed using Primer3 software (http://www-genome.wi.mit.edu/cgi-bin/primer/primer3_www.cgi/). […]
Acute and chronic FSG67 treatment altered hypothalamic neuropeptide expression. Hypothalamic peptide expression was measured in the lean and DIO mice treated with a single dose of FSG67 (see FIG. 11) and in the chronically treated DIO mice (see FIG. 12) to further asses the mechanism responsible for reduced food intake. […]

DIO mice [3] = experiment: Serum chemistry and Oil Red O liver histology of 16 d treated DIO mice; type: in vivo, mouse
Method: as §1
Consistent with the systemic reduction in adiposity, GPAT inhibition reversed hepatic steatosis in DIO mice. […] Cholesterol levels remained unchanged (FIG. 14d). The resolution of the hepatic steatosis in FSG67 treated mice may have contributed to the normalization of blood glucose levels.

In the case of CCCCCCCCCS(=O)(=O)Nc1ccccc1C(=O)O [Compound 15g, 2-(Nonylsulfonamido)benzoic acid], the IC50 (mouse mitochondrial GPAT) is given as 24.7 µM, the “reduction in fat mass compared to vehicle controls (Q-NMR)” value (DIO mice [1]; 5 mg/kg ip daily, 10 d) is given as 4.0 g and the “lean and water mass (Q-NMR)” value (DIO mice [1]; 5 mg/kg ip daily, 10 d, listed as FSG67, 5 mg/kg) is given as “no significant change; also recorded: unaffected”. The “final weight difference to vehicle controls” value (DIO mice [1]; conclusion of 10 d experiment) was 4.4 g, the “hypothalamic NPY expression” value ([2]; compared to fasted mice) was “significantly reduced” and the “hypothalamic AGRP expression” value ([2]; compared to vehicle control and fasted mice, listed as FSG67, 20 mg/kg) was “substantially diminished”. For the same compound, the “hypothalamic POMC and CART expression” value ([2]; listed as FSG67, 20 mg/kg) was “not affected; also recorded: unaffected”, the “liver histology: inflammation, necrosis, hepatocellular injury” value (DIO mice [3]) was “No inflammation, necrosis, or hepatocellular injury” and the “reduction in serum triglyceride levels vs pair-fed or vehicle” value (DIO mice [3]) was “not statistically significant”. The serum glucose (DIO mice [3]; 5 mg/kg ip daily) was 153.3 ± 10.5 mg/dL, the serum triglyceride (DIO mice [3]; 5 mg/kg ip daily) was 111.3 ± 10.9 mg/dL and the “hepatic steatosis (Oil red O liver sections)” value (DIO mice [3]; listed as FSG67) was “nearly complete resolution; also recorded: almost complete amelioration of fat accumulation”. The serum cholesterol levels (DIO mice [3]; listed as FSG67) was “unchanged; also recorded: unaffected”.
